Source: patent US20260085081A1, “PHOSPHATIDYLAMINE COMPOUNDS INCLUDING A PLURALITY OF TERTIARY AMINO GROUP STRUCTURES AND COMPOSITIONS THEREOF” (PEKING UNIVERSITY, priority 2022, published 2026)

Assays:
adipose tissue = test: Intraperitoneal injection of Fluc-mRNA LNPs, expression and distribution; assay type: in vivo, mice; settings: for Intraperitoneal injection (PL/SM102) expression strength level: ratio of expression PL/SM102; for expression compared with control SM102: intraperitoneal injection
Method: FIG. 10 illustrates the effect of Fluc-mRNA LNPs composed of different structural cationic lipids on the mRNA delivery efficiency after intraperitoneal administration according to some embodiments of the present disclosure. Targeting and expression of PL lipids on adipose tissue after intraperitoneal administration is also evaluated. […] That is to say, the PL lipid structure with the plurality of tertiary amino group structures may enhance the selective targeting of visceral adipocytes. […]
(§1) Finally, the expression levels of lipid nanoparticles with a plurality of tertiary amine groups from the embodiments of the present disclosure after intramuscular injection, white adipocyte administration, and intraperitoneal injection are summarized, and compared with lipid nanoparticles prepared from commercially available cationic lipids MC3 and SM102. […] However, the expression rates of the phosphatidylamine lipids with a plurality of tertiary amine groups from embodiments of the present disclosure are higher than that of SM102.

[1] = system: Fluc-mRNA (luciferase expression); test: In vivo transfection efficiency of Fluc-mRNA lipid nanoparticles after intramuscular injection; design: species or system mice; settings: for Intramuscular injection (PL/MC3) expression strength level: ratio of expression PL/MC3; for in vivo transfection (expression, FIG. 5): weight ratio lipid nanoparticle/RNA 10:1, DOPE or DSPC group; for in vivo transfection (expression, FIG. 5) / expression in vivo compared with control MC3: 3 μg Fluc-mRNA/mouse; for expression in vivo compared with control MC3 / enhancement of in vivo expression with respect to control MC3: DOPE group, weight ratio 10:1; for enhancement of in vivo expression with respect to control MC3: 3 g Fluc-mRNA/mouse
Method: 6 h after intramuscular injection of mRNA LNPs, mice were injected intraperitoneally with 0.2 mL […] (20 mg/mL PBS solution). After 10 min, mice were anesthetized with isoflurane in oxygen in a ventilated anesthesia room and imaged with an imaging system (IVIS, PerkinElmer), and luminescence was quantified using Living Image software (PerkinElmer).

white adipocyte = test: White adipocyte administration, expression relative to SM102; assay type: cell-based; settings: for White adipocyte administration (PL/SM102) expression strength level: ratio of expression PL/SM102; for expression compared with control SM102: white adipocyte administration
Description: as §1

[2] = Summary of the strongest expressions over the administration routes; settings: strongest level of the three administrations
Description: as §1

Row | Compound | Intraperitoneal injection (PL/SM102) expression strength level (adipose tissue) | Intramuscular injection (PL/MC3) expression strength level [1] | in vivo transfection (expression, FIG. 5) [1] | White adipocyte administration (PL/SM102) expression strength level (white adipocyte) | Summary of the strongest expressions [2] | expression compared with control SM102 (adipose tissue) | expression compared with control SM102 (white adipocyte) | expression in vivo compared with control MC3 [1] | enhancement of in vivo expression with respect to control MC3 [1]
1 | CCCCC/C=C\C/C=C\CCCCCCCCOP(=O)(NCCCN(CCCN(CC(O)CCCCCCCCCC)CC(O)CCCCCCCCCC)CC(O)CCCCCCCCCC)OCCCCCCCC/C=C\C/C=C\CCCCC (centres unmarked) [PL18] | D (D: <0.1) | A (A: ≥2) | expressed | C (C: ≥0.1 and <1) | A (A: ≥2) |  |  |  | 
2 | CCCCC/C=C\C/C=C\CCCCCCCCOP(=O)(NCCN(CCN(CCN(C)C)CC(O)CCCCCCCCCC)CC(O)CCCCCCCCCC)OCCCCCCCC/C=C\C/C=C\CCCCC (centres unmarked) [PL20] | B (B: ≥1 and <2) |  |  | B (B: ≥1 and <2) | B (B: ≥1 and <2) | superior to that of the control SM102 | superior to that of the control SM102 |  | 
3 | CCCCC/C=C\C/C=C\CCCCCCCCOP(=O)(NCCCN(CCCCCCCCCCCC)CCc1ccc(CCN(C)C)cc1)OCCCCCCCC/C=C\C/C=C\CCCCC [PL21] | C (C: ≥0.1 and <1) |  |  | B (B: ≥1 and <2) | B (B: ≥1 and <2) |  | superior to that of the control SM102 |  | 
4 | CCCCC/C=C\C/C=C\CCCCCCCCOP(=O)(NCCCN(CCCCCCCCCCCC)CCc1ccc(CCN(CCCCCCCCCCCC)CCCCCCCCCCCC)cc1)OCCCCCCCC/C=C\C/C=C\CCCCC [PL22] | D (D: <0.1) |  |  | C (C: ≥0.1 and <1) | C (C: ≥0.1 and <1) |  |  |  | 
5 | CCCCC/C=C\C/C=C\CCCCCCCCOP(=O)(NCCCN1CCN(CCCN(CC(O)CCCCCCCCCC)CC(O)CCCCCCCCCC)CC1)OCCCCCCCC/C=C\C/C=C\CCCCC (centres unmarked) [PL23] | C (C: ≥0.1 and <1) | A (A: ≥2) | expressed | C (C: ≥0.1 and <1) | A (A: ≥2) |  |  |  | 
6 | CCCCCCCCC(CCCCCCCC)OC(=O)CCCCCCCOP(=O)(NCCCN1CCN(CCCN(CCCCCCCC(=O)OC(CCCCCCCC)CCCCCCCC)CCCCCCCC(=O)OC(CCCCCCCC)CCCCCCCC)CC1)OCCCCCCCC(=O)OC(CCCCCCCC)CCCCCCCC [PL38] | D (D: <0.1) |  |  | C (C: ≥0.1 and <1) | C (C: ≥0.1 and <1) |  |  |  | 
7 | CCCCCCCCCCCCN(CCCCCCCCCCCC)CCCN1CCN(CCCNP(=O)(OCCCCCCOC(=O)C(CC)CCCC)OCCCCCCOC(=O)C(CC)CCCC)CC1 (centres unmarked) [PL53] | C (C: ≥0.1 and <1) | A (A: ≥2) | expressed | B (B: ≥1 and <2) | A (A: ≥2) |  | superior to that of the control SM102 | better than that of control MC3 | an order of magnitude enhancement
8 | CCCCCCCCCCCCN(CCCCCCCCCCCC)CCCN1CCN(CCCNP(=O)(OCCCCCCOC(=O)C(CC)CCCCCC)OCCCCCCOC(=O)C(CC)CCCCCC)CC1 (centres unmarked) [PL54] | B (B: ≥1 and <2) | A (A: ≥2) | expressed | B (B: ≥1 and <2) | A (A: ≥2) | superior to that of the control SM102 | superior to that of the control SM102 |  | 
9 | CCCCCCCCCCCCN(CCCCCCCCCCCC)CCCN1CCN(CCCNP(=O)(OCCCCCCOC(=O)C(CCCCCC)CCCCCCCC)OCCCCCCOC(=O)C(CCCCCC)CCCCCCCC)CC1 (centres unmarked) [PL55] | B (B: ≥1 and <2) | A (A: ≥2) | expressed | B (B: ≥1 and <2) | A (A: ≥2) | superior to that of the control SM102 | superior to that of the control SM102 | better than that of control MC3 | an order of magnitude enhancement
10 | CCCCC/C=C\C/C=C\C/C=C\C/C=C\CCCC(=O)OCCCCCCOP(=O)(NCCCN1CCN(CCCN(CCCCCCCCCCCC)CCCCCCCCCCCC)CC1)OCCCCCCOC(=O)CCC/C=C\C/C=C\C/C=C\C/C=C\CCCCC [PL59] | D (D: <0.1) |  |  | A (A: ≥2) | A (A: ≥2) |  | superior to that of the control SM102 |  | 
11 | CC/C=C\C/C=C\C/C=C\C/C=C\C/C=C\CCCC(=O)OCCCCCCOP(=O)(NCCCN1CCN(CCCN(CCCCCCCCCCCC)CCCCCCCCCCCC)CC1)OCCCCCCOC(=O)CCC/C=C\C/C=C\C/C=C\C/C=C\C/C=C\CC [PL60] | D (D: <0.1) |  |  | C (C: ≥0.1 and <1) | C (C: ≥0.1 and <1) |  |  |  | 
12 | CCC/C=C\C/C=C\C/C=C\C/C=C\C/C=C\C/C=C\CCC(=O)OCCCCCCOP(=O)(NCCCN1CCN(CCCN(CCCCCCCCCCCC)CCCCCCCCCCCC)CC1)OCCCCCCOC(=O)CC/C=C\C/C=C\C/C=C\C/C=C\C/C=C\C/C=C\CCC [PL61] | D (D: <0.1) |  |  | C (C: ≥0.1 and <1) | C (C: ≥0.1 and <1) |  |  |  | 
13 | CCCCCCCCCCC(O)CN(CCCN1CCN(CCCNP(=O)(OCCCCCCCCOC(=O)C(CC)CCCC)OCCCCCCCCOC(=O)C(CC)CCCC)CC1)CC(O)CCCCCCCCCC (centres unmarked) [PL78] | B (B: ≥1 and <2) |  |  | B (B: ≥1 and <2) | B (B: ≥1 and <2) | superior to that of the control SM102 | superior to that of the control SM102 |  | 
14 | CC/C=C\C/C=C\C/C=C\C/C=C\C/C=C\CCCC(=O)OCCCCCCOP(=O)(NCCCN1CCN(CCCN(CC(O)CCCCCCCCCC)CC(O)CCCCCCCCCC)CC1)OCCCCCCOC(=O)CCC/C=C\C/C=C\C/C=C\C/C=C\C/C=C\CC (centres unmarked) [PL79] | C (C: ≥0.1 and <1) |  |  | B (B: ≥1 and <2) | B (B: ≥1 and <2) |  | superior to that of the control SM102 |  | 
